In patent US20130052214A1, “IDENTIFICATION OF A PEPTIDE(S) THAT INDUCES AUTOIMMUNE ANTERIOR UVEITIS” (BOARD OF TRUSTEES OF THE UNIVERSITY OF ARKANSAS, priority 2011, published 2013):

Test system: Lewis rats
Assay: Induction of experimental autoimmune anterior uveitis (EAAU) by hind footpad immunization with MAA-derived peptides in CFA
Assay type: in vivo, rat
Conditions: for severity of EAAU, clinical and histopathologic examination: 250 μg peptide in CFA compared with 75 μg bovine MAA in CFA, histology at day 17 and day 20 post-immunization; for induction of EAAU: single-dose hind footpad immunization, emulsified 1:1 in CFA, 250 μg peptide or 75 μg bovine MAA, examined daily day 7 to 30 post-immunization
Description: Peptides having the sequence of SEQ ID NO. 1 and SEQ ID NO. 2 were solubilized in sterile phosphate buffered saline (PBS) before use. Lewis rats were immunized separately with 100 μl of stable emulsion containing 250 μg of peptide SEQ ID NO. 1 (n=9 rats) or peptide SEQ ID NO. 2 (n=9 rats) emulsified (1:1) in complete Freund's adjuvant (CFA) using a single-dose induction protocol in the hind footpad to induce EAAU. Control animals (n=9 rats) received 75 μg of bovine melanin associated antigen (MAA) emulsified (1:1) in CFA. Animals in each group were examined daily between day 7 and 30, post-immunization, to determine the time of onset and progression of clinical disease in EAAU. Two animals from each group were sacrificed at day 17 and day 20 post-immunization and eyes were harvested for histological analysis to determine the severity of disease and degree of inflammation. Lewis rats injected with MAA peptide SEQ ID NO. 1 or MAA peptide SEQ ID NO. […] 1 (FIGS. 1A and 1D) and peptide SEQ ID NO. […] As shown in all of the Figs., the iris (I) and the ciliary body (CB) were infiltrated with inflammatory cells.

GEPGNIGFPGPKGPSGDPGKAGEKG (listed as Bos taurus) [SEQ ID NO. 1, truncated peptide derived from Melanin Associated Antigen (MAA)]
severity of EAAU, clinical and histopathologic examination: less severe than that induced by bovine MAA | induction of EAAU: developed EAAU

HAGLAGARGAPGPDGNNGAQGPPGL (listed as Bos taurus) [SEQ ID NO. 2, truncated peptide derived from Melanin Associated Antigen (MAA)]
severity of EAAU, clinical and histopathologic examination: less severe than that induced by bovine MAA | induction of EAAU: developed EAAU
